Tests used:
[1] = target: T1, Mitogen-activated protein kinase 1 (Homo sapiens, UniProt P28482); experiment: (§1) Kinase Assay (New): Compound potency against activated ERK2 is determined using a kinase assay that measures ERK2-catalyzed phosphorylation of biotinylated ERKtide peptide substrate ([Biotin]-AHA-KRELVEPLTPSGEAPNQALLR-[NH2], the peptide sequence derived from EGF receptor: SEQ ID NO:1). The assay is carried out in 50 mM HEPES [pH 7.5], 5 mM MgCl2, 1 mM DTT, 0.01% Tween-20, 0.05% BSA using 0.25 nM ERK2, 200 nM ERKtide peptide and 35 uM ATP (all concentrations are final in the reaction) in a total volume of 10.25 uL. A 16-point, half-log dilution series of compounds at 41x final concentration is used for generating IC50 curves. Compound dilution series are prepared in 100% DMSO. ERK2 is preincubated with compounds for 30 minutes at ambient temperature. Reaction is initiated by addition of a substrate cocktail of ERKtide peptide and ATP and is allowed to proceed for 2-3 hours at ambient temperature. Reaction is terminated by addition of 10 uL of a 2x stop buffer consisting of 100 mM Tris-Cl [pH 7.5], 25 mM EDTA, 0.01% Tween 20, 10 ug/mL of AlphaScreen Protein A Acceptor Beads, 10 ug/mL of Streptavidin Donor Beads (PerkinElmer, Waltham, Mass.), and 1.4 ug/mL phospho-EGF Receptor (Thr669) antibody (Cat #3056, Cell Signaling Technology, Danvers, Mass.). Terminated reactions are read, after overnight incubation in the dark, on an EnVision Multilabel Plate Reader (PerkinElmer, Waltham, Mass.), with excitation and emission wavelengths set to 680 nm and 570 nm, respectively. IC50 values are determined using a four-parameter fit.
[2] = target: T1, Mitogen-activated protein kinase 1; experiment: The assay was carried out in 20 mM HEPES [pH 7.5], 5 mM MgCl2, 1 mM DTT, 0.01% Tween-20, 0.05% BSA using 0.02 nM ERK2, 400 nM ERKtide peptide and 35 uM ATP (all concentrations are final in the reaction) in a total volume of 10.25 uL. A 16-point, half-log dilution series of compounds at 41x final concentration was used for generating IC50 curves. Compound dilution series were prepared in 100% DMSO. ERK2 was preincubated with compounds for 30 minutes at ambient temperature. Reaction was initiated by addition of a substrate cocktail of ERKtide peptide and ATP and was allowed to proceed for 4 hours at ambient temperature. Reaction was terminated by addition of 10 uL of a 2x stop buffer consisting of 100 mM Tris-Cl [pH 7.5], 25 mM EDTA, 0.01% Tween 20, 20 ug/mL of AlphaScreen Protein A Acceptor Beads, 20 ug/mL of Streptavidin Donor Beads (PerkinElmer, Waltham, Mass.), and 1:1000 dilution phospho-EGF Receptor (Thr669) antibody (Cat #8808, Cell Signaling Technology, Danvers, Mass.). Terminated reactions were read, after overnight incubation in the dark, on an EnVision Multilabel Plate Reader (PerkinElmer, Waltham, Mass.), with excitation and emission wavelengths set to 680 nm and 570 nm, respectively. IC50 values were determined using a four-parameter fit.
[3] = target: T1, Mitogen-activated protein kinase 1; experiment: as §1, with “AlphaScreen Assay:” for “Kinase Assay (New):”, “Mass.).” for “Mass.). Terminated reactions are read, after overnight incubation in the dark, on an EnVision Multilabel Plate Reader (PerkinElmer, Waltham, Mass.), with excitation and emission wavelengths set to 680 nm and 570 nm, respectively. IC50 values are determined using a four-parameter fit.”

T1 sequence (P28482 whole entry): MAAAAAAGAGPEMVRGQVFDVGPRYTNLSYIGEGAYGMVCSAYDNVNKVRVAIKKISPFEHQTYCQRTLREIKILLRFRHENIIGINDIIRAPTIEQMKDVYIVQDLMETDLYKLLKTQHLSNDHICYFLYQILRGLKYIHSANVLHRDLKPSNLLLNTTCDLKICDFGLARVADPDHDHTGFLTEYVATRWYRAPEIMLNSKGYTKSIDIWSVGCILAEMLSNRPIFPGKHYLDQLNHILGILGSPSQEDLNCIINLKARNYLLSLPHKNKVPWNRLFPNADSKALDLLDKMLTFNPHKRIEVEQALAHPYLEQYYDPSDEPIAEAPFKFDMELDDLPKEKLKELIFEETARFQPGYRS

Structure (SMILES) | IC50 [1] [nM] | IC50 [2] [nM] | IC50 [3] [nM]
Cc1nn(C)cc1-c1cnc(N)c(-c2ccc(C(=O)N[C@H](CO)c3ccccc3)c(F)c2)c1 | 1.41 |  | 
Nc1ncc(C2CCOCC2)nc1-c1ccc(C(=O)N[C@H](CO)C2CCCCC2)c(F)c1 | 26.5 |  | 
Cc1nn(C(F)F)cc1-c1cnc(N)c(-c2ccc(C(=O)N[C@H](CO)c3cccc(Cl)c3)c(F)c2)c1 |  | 0.0245 | 
CS(=O)(=O)[C@H]1CC[C@H](c2cnc(N)c(-c3ccc(C(=O)NCc4ccccc4)c(F)c3)n2)CC1 | 64.4 | 29.7 | 
Nc1ncc([C@H]2CC[C@H](O)CC2)nc1-c1ccc(C(=O)NCc2cccc(Cl)n2)c(F)c1 |  | 21 | 
Nc1ncc([C@H]2CC[C@@H](O)CC2)nc1-c1ccc(C(=O)NCc2cccc(Cl)n2)c(F)c1 |  | 159 | 
CC(C)n1cc(-c2cnc(N)c(-c3ccc(C(=O)N[C@H](CO)c4ccccc4)c(F)c3)c2)cn1 | 2.06 |  | 
Nc1cc(-c2cc(C3CCOCC3)cnc2N)ccc1C(=O)N[C@H](CO)c1ccccc1 |  | 3.04 | 5.24
Cn1ccc(-c2cnc(N)c(-c3ccc(C(=O)N[C@H](CO)c4cccc(Cl)c4)c(F)c3)c2)n1 |  | 0.0937 | 
Nc1ncc(N2CCOCC2)cc1-c1ccc(C(=O)N[C@H](CO)c2ccccc2)c(F)c1 |  | 1.31 | 20.6
Cn1cc(-c2cnc(N)c(-c3ccc(C(=O)N[C@H](CO)c4ccccc4)c(F)c3)c2F)cn1 | 9.77 |  | 
